Earlier results, collected in patent US8632828B2, “Chinese herbal medicine composition used for antiinflammation, detumescence and acesodyne, and preparation method and use thereof” (priority 2009, dated 2014).

Key:
rats = details: intravenous injection
mice = details: subcutaneous injection
People = details: oral administration
[1] = system: ehrlich ascites tumor of mice; details: intraperitoneal injection
melanin tumour = details: mice, intraperitoneal injection

SMILES: COc1c2occc2cc2ccc(=O)oc12 [xanthotoxin]
- LD50 (rats): 160 mg/kg

SMILES: CCN1C[C@]2(COC)[C@H](O)C[C@H](OC)[C@@]34[C@@H]5C[C@@]6(O)[C@H](OC(=O)c7ccccc7)[C@@H]5[C@@](OC(C)=O)([C@@H]([C@H](OC)[C@H]23)[C@@H]14)[C@@H](O)[C@@H]6OC [Aconitine]
- LD50 (mice): 0.32 mg/kg
- fatal dosage (People): 2~5 mg

SMILES: COC[C@]12CN(C)[C@@H]3[C@@H]4[C@H](OC)[C@H]1[C@@]3([C@@H](OC)C[C@H]2O)[C@@H]1C[C@@]2(O)[C@H](OC(=O)c3ccccc3)[C@@H]1[C@]4(OC(C)=O)[C@@H](O)[C@@H]2OC [mesaconitine]
- fatal dosage (mice): fatal dosage was 0.3~0.5 mg/kg.

SMILES: COc1c2ccoc2cc2oc(=O)ccc12 [bergapten]
- LD50 (rats): 945 mg/kg

SMILES: Cc1cc(O)c2c(c1)C(=O)c1cc(O)cc(O)c1C2=O [emodin]
- inhibiting effect on ehrlich ascites tumor [1]: injection, have good inhibiting
- inhibiting effect on melanin tumour (melanin tumour): injection, have good inhibiting
